Source: patent US6110491A, “Compound-loaded liposomes and methods for their preparation” (Hermes Biosciences, Inc., priority 1997, dated 2000)
Converted amounts (≈) assume the structure as drawn. “Also recorded” adds a separate entry of the source.

Key:
[1] = Doxorubicin loading into liposomes with entrapped polyacrylate / chondroitin sulfate A (Examples 1, 3); assay type: physicochemical
Protocol: 21.6 mg of polyacrylic acid (molecular weight 2,000; Aldrich Corporation, Milwaukee, Wis.) were dissolved in 3 ml of water and neutralized to pH 7.4 with NaOH to produce 100 milli-eq/L sodium polyacrylate solution. 10 mg of the mixture of egg PC, cholesterol, and PEG (molecular weight 2,000)-DSPE (Avanti Polar Lipids, Birmingham, Ala.) in the molar ratio of 10:5:1 was dissolved in chloroform, the solvent was evaporated in vacuum, the lipid film was incubated with shaking in 1 ml of the above polyacrylate solution, and the lipid dispersion was extruded under pressure through 2 stacked Nucleopore (Pleasanton, Calif.) membranes with pore size […]. […] To the so obtained liposomes, doxorubicin (Cetus Oncology, Norwalk, Conn.) was added at 200 nmol/μmol, of liposomal phospholipid. The mixture was incubated overnight at 37° C. with shaking, treated with Dowex 50W×4 (Sigma Chemical Co., St. Louis, Mo.), and equilibrated with NaCl-HEPES solution to remove non-encapsulated doxorubicin. The resulting liposomes were sterilized by filtration through a […] filter and assayed for doxorubicin by spectrophotometry and liposomal phospholipid by acid digestion-molybdene blue assay. […] Under similar conditions, doxorubicin loading into liposomes without entrapped sodium polyacrylate was 8 nmol/μmol of phospholipid.
Liposomes were prepared as in Example 1, except that inner buffer, instead of polyacrylic acid, contained 5 mg/ml of chondroitinsulfate A (Sigma Chemical Co., St. Louis, Mo.). After overnight incubation with doxorubicin ([…] of phospholipid) at pH 7.2, free drug was removed from the liposomes, and the liposomes were assayed as in Example 1. The doxorubicin content in the resulting liposomes was 26.0 nmol/μmol of phospholipid.

[2] = test system: Human nasopharyngeal epidermoid carcinoma (KB) cells; assay: Cytotoxicity, growth inhibition by tetrazolium assay (96 hour incubation); assay type: cell-based; conditions: read-out: 50% growth inhibitory concentration (IC50)
Protocol: Human nasopharyngeal epidermoid carcinoma (KB) cells were from American Type Culture Collection (ATCC, Rockville, M.D.). The cells were grown in RPMI 1640 medium supplemented with 10% heat inactivated fetal calf serum, harvested by trypsinization, and plated in 96-well tissue culture plates at 2×10^4 cells/well. After a 24 hour acclimation period, a solution of free doxorubicin or the doxorubicin liposomes described in Example 1 were added to the cells to achieve final doxorubicin concentrations of 0.125-8 μg/ml. "Empty" liposomes were added to control cells at matching concentrations of the lipid. After a 96 hour incubation period, viability of the cells was measured by tetrazolium assay (Carmichael, et al., 1987). 50% growth inhibitory concentrations (IC50) of the studied preparation were as follows: […]

[3] = Doxorubicin loading into liposomes with entrapped sodium salts of sulfuric, phosphoric, polyvinylsulfuric or polyphosphoric acid, without or with nigericin (Examples 4, 5); assay type: physicochemical
Protocol: Liposomes were prepared from egg phosphatidylcholine using the procedure identical to Example 1 but instead of polyacrylic acid, the inner buffers contained one of the following salts: sodium sulfate, sodium phosphate, sodium polyvinylsulfate (Fluka, Ronkonkoma, N.Y.; average chain length n=13), or sodium polyphosphate (Sigma Chemical Co.; average chain length n=13-18), at a concentration of 100 mill-equivalents of sodium/L. The liposomes were incubated with doxorubicin (300 nmol/μmol of phospholipid) overnight, free drug was removed from the liposomes, and the liposomes were assayed as described in Example 1. Drug incorporation into the liposomes was as follows (in nmol/μmol of phospholipid): sodium sulfate, 82.1±0.95; sodium phosphate, 76.8±2.3; sodium polyvinylsulfate, 109.8±0.25; sodium polyphosphate, 85.2±2.2; "blank" liposomes, containing 100 mM sodium chloride, 1.03±0.06.
Liposomes were prepared and loading with doxorubicin as in Example 4, except that prior to drug loading, nigericin was added to the liposomes at a concentration of 5 μmol/L. The following drug incorporation (nmol/μmol of phospholipid) was obtained in the liposomes containing: sodium sulfate, 96.5±1.9; sodium phosphate, 271.9±3.8; sodium polyvinylsulfate, 133.7±1.9; sodium polyphosphate, 169.7±2.7.

[4] = Effect of membrane-active ion carriers on loading of doxorubicin into liposomes with entrapped potassium polyacrylate (Example 6, FIG. 1); assay type: physicochemical; conditions: valinomycin, CCCP or nigericin vs. none (FIG. 1)
Text: The liposomes prepared according to the present invention can be clearly distinguished from similar liposomes prepared by pH gradient, or ammonium ion gradient methods, by the liposomal response to membrane-active ion carriers which destroy transmembrane electrochemical gradients. For example, CCCP is a membrane proton carrier which destroys transmembrane pH gradients and leads to quick release of a liposomal-entrapped compound.
In contrast, liposomes prepared according to this invention, load doxorubicin in the presence of CCCP or nigericin with nearly the same efficiency as in the absence of such membrane-active ion carriers. This is shown in FIG. 1, where the loading of doxorubicin into liposomes in the presence of valinomycin, CCCP or nigericin was determined as a function of time. The liposomes were prepared as described in Example 1 to have entrapped potassium polyacrylate.

[5] = Doxorubicin precipitation by Inner Buffer anions (Example 9); assay type: physicochemical; conditions: for Doxorubicin precipitation: 1 mg/ml, 22° C., 3 hours
Protocol: Doxorubicin hydrochloride was added to the aliquots of Inner Buffers described in the Example 8 above to achieve final concentration of 1 mg/ml. The mixtures were briefly incubated at 60° C. to effect maximum drug dissolution, and further equilibrated at ambient temperature (22° C.) with gentle shaking for 3 hours. Precipitated doxorubicin was separated by centrifugation of an Eppendorf centrifuge (10,000 rpm, 5 min.), and the amount of doxorubicin in supernatant fluid was determined by spectrophotometry. The percent of drug precipitation was calculated as 100% less the percent of doxorubicin remaining in the supernatant fluid relative to the total added doxorubicin.

[6] = liposomes loaded by the ammonium ion method (Haran, et al., 1993); cited from earlier work

Structure (SMILES): COc1cccc2c1C(=O)c1c(O)c3c(c(O)c1C2=O)C[C@@](O)(C(=O)CO)C[C@@H]3O[C@H]1C[C@H](N)[C@H](O)[C@H](C)O1 [doxorubicin]
- Doxorubicin content in the resulting liposomes ([1]; entrapped chondroitin sulfate A 5 mg/ml, overnight, pH 7.2): 26.0 nmol/μmol of phospholipid
- Doxorubicin content of liposomes ([1]; entrapped sodium polyacrylate, egg PC/cholesterol/PEG-DSPE, doxorubicin 200 nmol/μmol, overnight 37° C.): 129 nmol/μmol of liposomal phospholipid
- Doxorubicin loading into liposomes ([1]; without entrapped sodium polyacrylate, similar conditions): 8 nmol/μmol of phospholipid
- IC50 [2]: 0.35 µg/mL (≈ 0.644 µM)
- Drug incorporation into the liposomes ([3]; "blank" liposomes containing 100 mM sodium chloride, doxorubicin 300 nmol/μmol): 1.03±0.06 nmol/μmol of phospholipid
- Drug incorporation into the liposomes ([3]; entrapped sodium phosphate, doxorubicin 300 nmol/μmol, overnight, no nigericin): 76.8±2.3 nmol/μmol of phospholipid
- Drug incorporation into the liposomes ([3]; entrapped sodium phosphate, nigericin 5 μmol/L): 271.9±3.8 nmol/μmol of phospholipid
- Drug incorporation into the liposomes ([3]; entrapped sodium polyphosphate, doxorubicin 300 nmol/μmol, overnight, no nigericin): 85.2±2.2 nmol/μmol of phospholipid
- Drug incorporation into the liposomes ([3]; entrapped sodium polyphosphate, nigericin 5 μmol/L): 169.7±2.7 nmol/μmol of phospholipid
- Drug incorporation into the liposomes ([3]; entrapped sodium polyvinylsulfate, doxorubicin 300 nmol/μmol, overnight, no nigericin): 109.8±0.25 nmol/μmol of phospholipid
- Drug incorporation into the liposomes ([3]; entrapped sodium polyvinylsulfate, nigericin 5 μmol/L): 133.7±1.9 nmol/μmol of phospholipid
- Drug incorporation into the liposomes ([3]; entrapped sodium sulfate, doxorubicin 300 nmol/μmol, overnight, no nigericin): 82.1±0.95 nmol/μmol of phospholipid
- Drug incorporation into the liposomes ([3]; entrapped sodium sulfate, nigericin 5 μmol/L): 96.5±1.9 nmol/μmol of phospholipid
- Effect of nigericin on drug loading ([3]; permeabilization of liposome membrane by nigericin 5 μmol/L): did not decrease drug loading
- Doxorubicin loading in presence of membrane-active ion carriers [4]: substantially equal efficiency; also recorded: substantially unaffected
- correlation coefficient R, extent of drug loading vs. drug solubility in Inner Buffer ([5]; Examples 8 and 9): 0.9043
- Doxorubicin precipitation ([5]; inner buffer anion DTPA): 58.1%
- Doxorubicin precipitation ([5]; inner buffer anion L(+)-tartrate): 25.0%
- Doxorubicin precipitation ([5]; inner buffer anion chloride): 1.1%
- Doxorubicin precipitation ([5]; inner buffer anion citrate): 81.4%
- Doxorubicin precipitation ([5]; inner buffer anion methanesulfonate): 0%
- Doxorubicin precipitation ([5]; inner buffer anion nitrate): 0%
- Doxorubicin precipitation ([5]; inner buffer anion phosphate): 73.7%
- Doxorubicin precipitation ([5]; inner buffer anion polyacrylate): 98.4%
- Doxorubicin precipitation ([5]; inner buffer anion sulfate): 47.5%
- Doxorubicin release by nigericin [6]: quickly releases
